# From ChEMBL document CHEMBL1145534 (2007)
# Columns and labels:
# Format in all cases: functional
# [1] = test system: Enterococcus gallinarum; assay: Antimicrobial activity against Enterococcus gallinarum by broth microdilution method
# [2] = test system: Streptococcus; assay: Antimicrobial activity against beta hemolytic Streptococcus group C at 0.12 ug/ml by broth microdilution method
# [3] = test system: Streptococcus equinus; assay: Antimicrobial activity against viridans group Streptococcus bovis at 0.25 ug/ml by broth microdilution method
# [4] = test system: Rothia mucilaginosa; assay: Antimicrobial activity against Rothia mucilaginosa at 0.5 ug/ml by broth microdilution method
# [5] = test system: Listeria monocytogenes; assay: Antimicrobial activity against Listeria monocytogenes at 0.12 ug/ml by broth microdilution method
# [6] = test system: Streptococcus salivarius; assay: Antimicrobial activity against viridans group Streptococcus salivarius by broth microdilution method
# [7] = test system: Streptococcus mutans; assay: Antimicrobial activity against viridans group Streptococcus mutans at 0.12 ug/ml by broth microdilution method
# [8] = test system: Listeria monocytogenes; assay: Antimicrobial activity against Listeria monocytogenes at <= 0.06 ug/ml by broth microdilution method
# [9] = test system: Streptococcus vestibularis; assay: Antimicrobial activity against viridans group Streptococcus vestibularis at 0.12 ug/ml by broth microdilution method
# [10] = test system: Enterococcus casseliflavus; assay: Antimicrobial activity against Enterococcus casseliflavus by broth microdilution method
# [11] = test system: Streptococcus parasanguinis; assay: Antimicrobial activity against viridans group Streptococcus parasanguis at 0.25 ug/ml by broth microdilution method
# [12] = test system: Streptococcus oralis; assay: Antimicrobial activity against viridans group Streptococcus oralis at 0.12 ug/ml by broth microdilution method
# [13] = test system: Streptococcus vestibularis; assay: Antimicrobial activity against viridans group Streptococcus vestibularis at 0.5 ug/ml by broth microdilution method
# [14] = test system: Enterococcus casseliflavus; assay: Antimicrobial activity against Enterococcus casseliflavus at <= 0.06 ug/ml by broth microdilution method
# [15] = test system: Corynebacterium amycolatum; assay: Antimicrobial activity against Corynebacterium amycolatum by broth microdilution method
# [16] = test system: Enterococcus durans; assay: Antimicrobial activity against Enterococcus durans at 2 ug/ml by broth microdilution method
# [17] = test system: Micrococcus luteus; assay: Antimicrobial activity against Micrococcus luteus at 0.25 ug/ml by broth microdilution method
# [18] = test system: Bacillus cereus; assay: Antimicrobial activity against Bacillus cereus at <= 0.06 ug/ml by broth microdilution method
# [19] = test system: Corynebacterium striatum; assay: Antimicrobial activity against Corynebacterium striatum at 0.12 ug/ml by broth microdilution method
# [20] = test system: Enterococcus hirae; assay: Antimicrobial activity against Enterococcus hirae at 0.5 ug/ml by broth microdilution method
# [21] = test system: Listeria monocytogenes; assay: Antimicrobial activity against Listeria monocytogenes at 0.5 ug/ml by broth microdilution method
# [22] = test system: Streptococcus equinus; assay: Antimicrobial activity against viridans group Streptococcus bovis at 0.5 ug/ml by broth microdilution method
# [23] = test system: Corynebacterium sp.; assay: Antimicrobial activity against Corynebacterium spp. at 0.12 ug/ml by broth microdilution method
# [24] = test system: Enterococcus casseliflavus; assay: Antimicrobial activity against Enterococcus casseliflavus at 0.5 ug/ml by broth microdilution method
# [25] = test system: Corynebacterium pseudodiphtheriticum; assay: Antimicrobial activity against Corynebacterium pseudodiphtheriticum at 0.25 ug/ml by broth microdilution method
# [26] = test system: Corynebacterium amycolatum; assay: Antimicrobial activity against Corynebacterium amycolatum at <= 0.06 ug/ml by broth microdilution method
# [27] = test system: Streptococcus; assay: Antimicrobial activity against beta hemolytic Streptococci group G at 0.5 ug/ml by broth microdilution method
# [28] = test system: Enterococcus raffinosus; assay: Antimicrobial activity against Enterococcus raffinosus by broth microdilution method
# [29] = test system: Streptococcus anginosus; assay: Antimicrobial activity against viridans group Streptococcus anginosus at 0.5 ug/ml by broth microdilution method
# [30] = test system: Streptococcus vestibularis; assay: Antimicrobial activity against viridans group Streptococcus vestibularis at <= 0.06 ug/ml by broth microdilution method
# [31] = test system: Streptococcus gordonii; assay: Antimicrobial activity against viridans group Streptococcus gordonii at 0.12 ug/ml by broth microdilution method
# [32] = test system: Corynebacterium striatum; assay: Antimicrobial activity against Corynebacterium striatum at <= 0.06 ug/ml by broth microdilution method
# [33] = test system: Corynebacterium pseudodiphtheriticum; assay: Antimicrobial activity against Corynebacterium pseudodiphtheriticum at 0.5 ug/ml by broth microdilution method
# [34] = test system: Bacillus cereus; assay: Antimicrobial activity against Bacillus cereus at 0.25 ug/ml by broth microdilution method
# [35] = test system: Streptococcus sanguinis; assay: Antimicrobial activity against viridans group Streptococcus sanguinis at 0.12 ug/ml by broth microdilution method
# [36] = test system: Enterococcus durans; assay: Antimicrobial activity against Enterococcus durans at 0.25 ug/ml by broth microdilution method
compound,measurement,setting,value
CC(=O)NC[C@H]1CN(c2ccc(N3CCOCC3)c(F)c2)C(=O)O1 [LINEZOLID],MIC50,[1],2 µg/mL
same,MIC90,[1],2 µg/mL
same,inhibition at 0.12 µg/mL,[2],3%
same,inhibition at 0.25 µg/mL,[3],2.7%
same,inhibition at 0.5 µg/mL,[4],83.3%
same,inhibition at 0.12 µg/mL,[5],0%
same,MIC50,[6],1 µg/mL
same,MIC90,[6],1 µg/mL
same,inhibition at 0.12 µg/mL,[7],0%
same,Inhibition,[8],0%
same,inhibition at 0.12 µg/mL,[9],0%
same,MIC50,[10],2 µg/mL
same,MIC90,[10],2 µg/mL
same,inhibition at 0.25 µg/mL,[11],0%
same,inhibition at 0.12 µg/mL,[12],0.7%
same,inhibition at 0.5 µg/mL,[13],36.4%
same,Inhibition,[14],0%
same,MIC50,[15],0.25 µg/mL
same,MIC90,[15],0.25 µg/mL
same,inhibition at 2 µg/mL,[16],100%
same,inhibition at 0.25 µg/mL,[17],3.4%
same,Inhibition,[18],1.7%
same,inhibition at 0.12 µg/mL,[19],12%
same,inhibition at 0.5 µg/mL,[20],0%
same,inhibition at 0.5 µg/mL,[21],0.7%
same,inhibition at 0.5 µg/mL,[22],23.8%
same,inhibition at 0.12 µg/mL,[23],13.6%
same,inhibition at 0.5 µg/mL,[24],0%
same,inhibition at 0.25 µg/mL,[25],36.4%
same,Inhibition,[26],0%
same,inhibition at 0.5 µg/mL,[27],8.2%
same,MIC50,[28],2 µg/mL
same,MIC90,[28],2 µg/mL
same,inhibition at 0.5 µg/mL,[29],33.7%
same,Inhibition,[30],0%
same,inhibition at 0.12 µg/mL,[31],0%
same,Inhibition,[32],0%
same,inhibition at 0.5 µg/mL,[33],90.9%
same,inhibition at 0.25 µg/mL,[34],3.3%
same,inhibition at 0.12 µg/mL,[35],0.7%
same,inhibition at 0.25 µg/mL,[36],2%
